Measurements taken from ChEMBL document CHEMBL3046165, “Synthesis of new cyclic imides derivatives with potential hypolipidemic activity” (Med Chem Res, 2012).

How the values were obtained:
Rattus norvegicus [1] = experiment: Toxicity in triton WR-1339-induced Rattus norvegicus albino Wistar (rat) hyperlipidemic model assessed as reduction of serum HDL level at 150 mg/kg, po qd after 24 hr; format: organism-based; parameters: dose 150 mg/kg, route oral; conditions: in vivo
Rattus norvegicus [2] = experiment: Toxicity in triton WR-1339-induced Rattus norvegicus albino Wistar (rat) hyperlipidemic model assessed as increase of serum total triglyceride level at 150 mg/kg, po qd after 24 hr; format: organism-based; parameters: dose 150 mg/kg, route oral; conditions: in vivo
Rattus norvegicus [3] = experiment: Toxicity in triton WR-1339-induced Rattus norvegicus albino Wistar (rat) hyperlipidemic model assessed as increase of serum LDL level at 150 mg/kg, po qd after 24 hr; format: organism-based; parameters: dose 150 mg/kg, route oral; conditions: in vivo
Rattus norvegicus [4] = experiment: Toxicity in triton WR-1339-induced Rattus norvegicus albino Wistar (rat) hyperlipidemic model assessed as increase of serum total cholesterol level at 150 mg/kg, po qd after 24 hr; format: organism-based; parameters: dose 150 mg/kg, route oral; conditions: in vivo
Rattus norvegicus [5] = experiment: Hypolipidemic activity in triton WR-1339-induced Rattus norvegicus albino Wistar (rat) hyperlipidemic model assessed as reduction of serum total triglyceride level at 150 mg/kg, po qd after 24 hr; format: functional; parameters: scale not given: the % may be the effect or the level left
Rattus norvegicus [6] = experiment: Hypolipidemic activity in triton WR-1339-induced Rattus norvegicus albino Wistar (rat) hyperlipidemic model assessed as reduction of serum total cholesterol level at 150 mg/kg, po qd after 24 hr; format: functional; parameters: scale not given: the % may be the effect or the level left
Rattus norvegicus [7] = experiment: Hypolipidemic activity in triton WR-1339-induced Rattus norvegicus albino Wistar (rat) hyperlipidemic model assessed as increase of serum HDL level at 150 mg/kg, po qd after 24 hr; format: functional

CC(C(=O)NCc1ccccc1)N1C(=O)c2ccccc2C1=O (centres undefined) was tested, and the Activity (Rattus norvegicus [1]) was “Toxic”, the Activity (Rattus norvegicus [2]) was “Toxic” and the Activity (Rattus norvegicus [3]) was 35.5%. For the same compound, the Activity (Rattus norvegicus [4]) was “Toxic”.

CC(C(=O)Nc1ccccc1)N1C(=O)c2ccccc2C1=O (centres undefined) was tested, and the Activity (Rattus norvegicus [5]) was <24% and the Activity (Rattus norvegicus [6]) was <24%.

For CCNC(=O)C(C)N1C(=O)c2ccccc2C1=O (centres undefined), the Activity (Rattus norvegicus [1]) was “Toxic”, the Activity (Rattus norvegicus [2]) was “Toxic” and the Activity (Rattus norvegicus [3]) was 35.5%. The Activity (Rattus norvegicus [4]) was “Toxic”.

With CCCNC(=O)C(C)N1C(=O)c2ccccc2C1=O (centres undefined) the Activity (Rattus norvegicus [1]) was “Toxic”, the Activity (Rattus norvegicus [2]) was “Toxic” and the Activity (Rattus norvegicus [3]) was 35.5%. For the same compound, the Activity (Rattus norvegicus [4]) was “Toxic”.

CC(C)NC(=O)C(C)N1C(=O)c2ccccc2C1=O (centres undefined) was tested, and the Activity (Rattus norvegicus [1]) was “Toxic”, the Activity (Rattus norvegicus [2]) was “Toxic” and the Activity (Rattus norvegicus [3]) was 35.5%. For the same compound, the Activity (Rattus norvegicus [4]) was “Toxic”.

CC(C(=O)NCCc1ccccc1)N1C(=O)c2ccccc2C1=O (centres undefined) was tested, and the Activity (Rattus norvegicus [1]) was “Toxic”, the Activity (Rattus norvegicus [2]) was “Toxic” and the Activity (Rattus norvegicus [3]) was 35.5%. For the same compound, the Activity (Rattus norvegicus [4]) was “Toxic”.

In the case of CC(C(=O)N1CCCC1)N1C(=O)c2ccccc2C1=O (centres undefined), the Activity (Rattus norvegicus [1]) is reported as “Toxic”, the Activity (Rattus norvegicus [2]) is reported as “Toxic” and the Activity (Rattus norvegicus [3]) is reported as 35.5%. The Activity (Rattus norvegicus [4]) was “Toxic”.

Work on CCNC(=O)C(C)N1C(=O)c2cccc3cccc(c23)C1=O (centres undefined) yielded an Activity (Rattus norvegicus [3]) of 4.5% and an Activity (Rattus norvegicus [7]) of 29.3%.

Work on CC(C(=O)Nc1ccccc1)N1C(=O)c2cccc3cccc(c23)C1=O (centres undefined) yielded an Activity (Rattus norvegicus [3]) of 4.5% and an Activity (Rattus norvegicus [7]) of 29.3%.

With CC(C(=O)NCc1ccccc1)N1C(=O)c2cccc3cccc(c23)C1=O (centres undefined) the Activity (Rattus norvegicus [3]) was 4.5% and the Activity (Rattus norvegicus [7]) was 29.3%.

With CC(C(=O)NCc1ccccc1)n1c(=O)c2ccccc2c2ccccc2c1=O (centres undefined) the Activity (Rattus norvegicus [3]) was 4.5% and the Activity (Rattus norvegicus [7]) was 29.3%.

CCNC(=O)c1ccccc1C(=O)NC(C)C(=O)NCC (centres undefined) was tested, and the Activity (Rattus norvegicus [5]) was 46.5% and the Activity (Rattus norvegicus [6]) was 48.6%.

In the case of CC(C)OC(=O)C(C)(C)Oc1ccc(C(=O)c2ccc(Cl)cc2)cc1 [FENOFIBRATE], the Activity (Rattus norvegicus [3]) is reported as 13%, the Activity (Rattus norvegicus [5]) is reported as 20% and the Activity (Rattus norvegicus [6]) is reported as 23%.
